Test results published in article PMC10304876 (Molecules, 2023).
Entries after “also recorded” stand apart in the source; their conditions may differ.

Experiments:
rodent = test system: rodent; set-up: method as in PMID 17625813; settings: rodent antinociceptive assays; cited from earlier work
[1] = target: T1, human µ-opioid receptor β-arrestin2 (Homo sapiens, UniProt P35372); test: cell-based; settings: for Emax: read-out: MOR β-Arrestin Recruitment %Emax ± SEM
T1 construct: EFC (enzyme fragment complementation) fragment; host or cells: PathHunter CHO-K1

[2] = target: T2, human δ-opioid receptor (OPRD1) (Homo sapiens, UniProt P41143); test: Forskolin-induced cAMP accumulation assay, DOR agonist; settings: for Emax: read-out: DOR Agonist %Emax ± SEM, cAMP assay
[3] = test system: squirrel monkeys (Saimiri sciureus); test: Warm-water tail withdrawal in squirrel monkeys; format: in vivo; settings: 52 °C water, cumulative dosing, n = 3 to 5
Experimental: Male squirrel monkeys (Saimiri sciureus) were housed in a climate-controlled vivarium with a 12 h light/dark cycle (7 a.m.–7 p.m.) in the McLean Hospital Animal Care Facility (licensed by the U.S. Department of Agriculture and compliant with guidelines provided by the Committee on Care and Use of Laboratory Animals of the Institute of Laboratory Animals Resources, Commission on Life Sciences, National Research Council; 2011). These experiments were approved under IACUC protocol #2015N000165.
Tail withdrawal latencies were assessed as described previously. Briefly, monkeys were seated in customized Plexiglas chairs that allowed their tails to hang freely. Tail withdrawal latencies were measured by immersing the subject’s tail in water held at 35 °C or 52 °C (temperatures were presented in a randomized order during successive test components). After obtaining a baseline tail withdrawal latency, complete dose response curves were generated in each subject using standard cumulative dosing procedures. Briefly, every 15 min after an injection, tail withdrawal latencies at each temperature were redetermined and subjects were injected with the next dose, such that the total (cumulative) dose was increased by ½ log10 units in each successive cycle. This procedure was repeated until either (a) the tail withdrawal latency from 52 °C water reached the maximum allowable latency (10 s), or (b) tail withdrawal latency no longer increased with increases in dose of the test drug.
(§1) All statistical analyses and graphic representations were completed with GraphPad Prism version 9.3.0 (GraphPad Software, San Diego, CA, USA) using log-transformed values of doses. Group means ± SEM tail withdrawal latencies (in sec) and minute volume ratios are plotted as a function of drug dose. Data were analyzed using one-way ANOVA with significance set at p < 0.05, followed by Dunnett’s multiple comparison test.

[4] = test system: squirrel monkeys (Saimiri sciureus); test: Squirrel monkey ventilation (whole-body plethysmograph, air vs 5% CO2); format: in vivo; settings: for respiratory depressant effects (ventilatory ratio: minute volumes in 5% CO2 vs room air): cumulative dosing, result in words
Experimental: These experiments were approved under IACUC protocol #2015N000165.
Ventilation measures were assessed as described previously. Briefly, squirrel monkeys were acclimated to a customized acrylic chamber (10′′d × 10′′w × 10′′h) that served as a whole-body plethysmograph (EMKA Technologies, Montreal, PQ, Canada). Gas (either air or a 5% CO2 in air mixture) was introduced to and extracted from the chamber at a constant flow rate of 5 L/min. Experimental sessions consisted of 4–6 consecutive 30 min cycles, each comprising a 20 min exposure to air followed by a 10 min exposure to 5% CO2. Drug effects were determined using cumulative dosing procedures, and injections were administered following each exposure to 5% CO2. Respiratory rate and tidal volume (mL/breath) were recorded over 1 min periods and were multiplied to provide minute volumes. Data from the last three minutes of each exposure to air or CO2 were averaged and used for analysis of drug effects on ventilation.
as §1

[5] = target: T2, human δ-opioid receptor (OPRD1); test: Forskolin-induced cAMP accumulation assay, DOR antagonist; settings: for DOR Antagonist %Imax ± SEM: Imax normalized to naltrexone
[6] = normalized to the forskolin control

T2 sequence (P41143 whole entry): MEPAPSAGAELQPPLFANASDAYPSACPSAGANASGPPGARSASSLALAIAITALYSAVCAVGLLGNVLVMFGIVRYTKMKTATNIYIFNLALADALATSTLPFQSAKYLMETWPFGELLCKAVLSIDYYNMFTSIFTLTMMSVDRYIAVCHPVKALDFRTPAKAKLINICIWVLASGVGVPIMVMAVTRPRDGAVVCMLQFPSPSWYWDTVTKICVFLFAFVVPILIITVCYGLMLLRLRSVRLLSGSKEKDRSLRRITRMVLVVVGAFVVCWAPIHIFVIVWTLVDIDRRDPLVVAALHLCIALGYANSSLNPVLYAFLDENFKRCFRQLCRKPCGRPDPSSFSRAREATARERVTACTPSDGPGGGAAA
T1 sequence (P35372 whole entry, the tested form may be a part): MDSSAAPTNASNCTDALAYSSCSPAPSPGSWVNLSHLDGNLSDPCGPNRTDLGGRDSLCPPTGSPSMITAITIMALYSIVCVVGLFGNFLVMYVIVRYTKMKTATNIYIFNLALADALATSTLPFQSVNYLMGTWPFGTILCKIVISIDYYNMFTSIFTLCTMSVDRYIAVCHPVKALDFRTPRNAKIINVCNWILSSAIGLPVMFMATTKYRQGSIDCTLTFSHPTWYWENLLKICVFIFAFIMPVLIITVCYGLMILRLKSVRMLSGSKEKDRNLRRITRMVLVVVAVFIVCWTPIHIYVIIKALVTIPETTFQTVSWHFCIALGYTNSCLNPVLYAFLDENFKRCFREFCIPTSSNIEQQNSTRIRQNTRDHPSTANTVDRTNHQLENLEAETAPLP

Row | SMILES | times more potent than morphine (rodent) | Bias Factor [1] | EC50 [1] | Emax [1] | EC50 [2] | Emax [2, 6] | antinociceptive effects (tail withdrawal latency) [3] | respiratory depressant effects (ventilatory ratio: minute volumes in 5% CO2 vs room air) [4] | IC50 [5] | DOR Antagonist %Imax ± SEM ([5]; cAMP assay) | ventilatory ratio reached with increasing dose ([4]; ratio of minute volumes in 5% CO2 and room air) | DOR Agonist %Emax ± SEM ([2]; cAMP assay, normalized to the forskolin control) | DOR Agonist EC50 ± SEM (nM) ([2]; inhibition of forskolin-induced cAMP accumulation, CHO-K1 cells) | DOR Antagonist IC50 ± SEM (nM) ([5]; cAMP assay, versus EC50 of SNC80)
1 | Oc1cccc([C@]23CCC[C@H]([C@H]2O)N(CCc2ccccc2)CC3)c1 [Compound 2] | ~500 times | – | – | – | – | – | – | – | – | – | – | – | – | –
2 | OC[C@H]1[C@H]2CCC[C@]1(c1cccc(O)c1)CCN2CCc1ccccc1 [Compound 11, 3-((1R,5S,9R)-9-(Hydroxymethyl)-2-phenethyl-2-azabicyclo[3.3.1]nonan-5-yl)phenol] | – | 13.4 | 187 nM | 2.7% | 8.5 ± 3.5 nM | 35% | – | – | – | – | – | – | – | –
3 | OC[C@H]1[C@@H]2CCC[C@@]1(c1cccc(O)c1)CCN2CCc1ccccc1 [Compound 15, 3-((1S,5R,9R)-9-(Hydroxymethyl)-2-phenethyl-2-azabicyclo[3.3.1]nonan-5-yl)phenol] | – | – | > 50000 nM | 0% | 0.6 ± 0.3 nM | 17% | did not significantly increase tail withdrawal latency | limited respiratory depressant effects | 336 ± 139 nM | 109 ± 8% | – | – | – | –
4 | OCC[C@H]1[C@@H]2CCC[C@@]1(c1cccc(O)c1)CCN2CCc1ccccc1 [Compound 21, 3-((1S,5R,9R)-9-(2-Hydroxyethyl)-2-phenethyl-2-azabicyclo[3.3.1]nonan-5-yl)phenol] | – | – | > 50000 nM | 0% | 13 ± 3 nM | 38% | significantly increased tail withdrawal latency; also recorded: full antinociceptive effects in three of four subjects | reduced the ability of 5% CO2 to stimulate increases in ventilation | – | – | above 2 | 39 ± 3% | – | –
5 | OCCC[C@H]1[C@H]2CCC[C@]1(c1cccc(O)c1)CCN2CCc1ccccc1 [Compound 34, 3-((1R,5S,9R)-9-(3-Hydroxypropyl)-2-phenethyl-2-azabicyclo[3.3.1]nonan-5-yl)phenol] | – | 14.0 | 34 nM | 3.1% | > 10000 nM | – | – | – | 41 ± 5 nM | 111 ± 4% | – | – | no DOR agonist activity | weak DOR antagonist activity
6 | OCCC[C@H]1[C@@H]2CCC[C@@]1(c1cccc(O)c1)CCN2CCc1ccccc1 [Compound 36] | – | – | > 50000 nM | 0% | 102 ± 16 nM | 41% | did not significantly increase tail withdrawal latency | limited respiratory depressant effects | – | – | – | – | – | –
7 | COC[C@H]1[C@H]2CCC[C@]1(c1cccc(O)c1)CCN2CCc1ccccc1 [Compound 41, 3-((1R,5S,9R)-9-(Methoxymethyl)-2-phenethyl-2-azabicyclo[3.3.1]nonan-5-yl)phenol] | – | 6.4 | 29 nM | 2.8% | 2.4 ± 1.6 nM | 20% | – | – | 54 ± 14 nM | 80 ± 8% | – | – | – | –
8 | CN1CC[C@]23c4c5ccc(O)c4O[C@H]2[C@@H](O)C=C[C@H]3[C@H]1C5 [Morphine, reference compound] | – | – | – | – | – | – | significantly increased tail withdrawal latency | – | – | – | – | – | – | –
